Source: US9566265B2, “Carbazole compounds and therapeutic uses of the compounds” (Incuron, LLC, priority 2008, dated 2017)
In brackets after ≈: the same amount, converted by molar mass. Where two headings read alike, the source gives them in different places.

Key:
in vivo = settings: nude, mouse, po
Experimental: Drug doses and schedule. […] Treatment was initiated 7 days after tumor transplantation when the tumors reached 150-200 mg. The mice in the control group received the vehicle (0.2% hydroxypropylmethylcellulose) at 200 μl per 20 g mouse body weight (same as the treatment groups). Five mice were used for each experimental group with 10 tumors (1 tumor each in the left and right side flanks).
Maximum Tolerated Dose (MTD) and toxicity evaluation. […] The kinetics of drug-induced toxicities (body weight loss, diarrhea, and lethality) were determined daily for the first 10 days after treatment and every two days thereafter.

[1] = tested on: human HT-29 colon adenocarcinoma xenografts
Experimental: (§2) In this study, the antitumor effect and toxicity of the three carbazoles against HCT-8 and HT29 colon cancer tumors were compared with treatment beginning when the tumor size reached 150-200 mg (about 7 days after tumor transplantation).
(§3) Eight to twelve-week-old female athymic nude mice (nu/nu, body weight 22-25 g) were obtained from Harlan Sprague Dawley Inc. (Indianapolis, Ind.) and maintained at five mice/cage with water and food ad libitum according to an institutionally approved animal protocol.
(§4) Human ileocecal adenocarcinoma HCT-8 and colon adenocarcinoma HT-29 xenografts were used. The xenografts were initially established by injecting s.c 10^6 cultured cells and tumors were passed several generations by transplanting about 50 mg non-necrotic tumor (2-3 pieces) via a trocar from the passage tumors when the tumors reach to 1-1.5 g.
(§5) Treatment was initiated 7 days after tumor transplantation when the tumors reached 150-200 mg. The mice in the control group received the vehicle (0.2% hydroxypropylmethylcellulose) at 200 μl per 20 g mouse body weight (same as the treatment groups). Five mice were used for each experimental group with 10 tumors (1 tumor each in the left and right side flanks).
(§6) Two axes (mm) of tumor (L, longest axis; W, shortest axis) were measured with the aid of a Vernier caliper. Tumor weight (mg) was estimated using a formula: tumor weight=½ (L×W2). Tumor measurements were taken daily at the same time as drug treatment and 3-4 times a week of post therapy.
(§7) The kinetics of drug-induced toxicities (body weight loss, diarrhea, and lethality) were determined daily for the first 10 days after treatment and every two days thereafter.
(§8) Antitumor activity was assessed by maximum tumor growth inhibition (MTRI) which is the mean tumor weight of treated group (MTWTG) compared with untreated control group (MTWCG) at the same time point (MTRI=MTWTG−MTWCG)÷MTWCG×100%). The tumor doubling time (TDT) was defined as the mean time for the tumor to reach twice its initial weight. Tumor response was expressed as partial tumor response (PR) when tumor weight was reduced at least 50% of the initial tumor size and complete tumor response (CR) was defined as the inability to detect tumor upon palpation at the initial site of tumor appearance.

Bacillus subtilis = experiment: antibacterial cytotoxicity assay, gram(+) bacteria (OD600); assay type: cell-based; settings: B. subtilis, 48 hours, over a range of potencies; FIG. 13B
Experimental: In vitro test to evaluate the effect of carbazole compounds on gram(-) and gram(+) bacteria. Two days prior to the start of the cytotoxicity assay, inoculate DH5-α and B. subtilis into 1 ml of corresponding media from glycerol stocks. Allow to grow during the course of the day at 37° C. with shaking. Streak each bacteria on the appropriate agar plates using a sterile inoculation loop and allow to grow overnight at 37° C. in the bacteria incubator. Using a sterile inoculation loop, pick a single colony of bacteria and inoculate 5 ml of the corresponding media in a 14 ml snap cap tube. Grow overnight ( 16 h) at 37° C. with shaking. […] Dilute 5 ml cultures of DH5-α and B. subtilis to an OD600 nm of 0.002, which corresponds to about 2×10^6 cells/ml in a volume sufficient for the experiment (dependent on the number of plates). Plate out 50 μl into each well of X 96-well plates (X=# plates needed for a given experiment). […] Chemicals for testing are prepared by dilution of stock solutions in LB Broth or Nutrient Broth for DH5-α and B. subtilis studies, respectively. Cells are treated with the final chemical concentrations presented in the scheme below (Table 2). Stock solutions are made up in DMSO. […] However, this concentration is dependent on the solubility of a given chemical and actual stock concentrations must be noted at time of experiment. Each library chemical to be tested requires 2 rows of a 96-well plate, thus 4 chemicals ([…]) can be tested in one plate simultaneously. In addition to test chemicals, each plate should include positive and negative controls. As positive control, ampicillin is used at 100 μg/ml. […] Dilutions of chemicals to be added to the plate are made up as 2× concentrations in appropriate bacteria media and added to corresponding wells in a volume of 50 μl. […] This process is repeated until all 10 2× doses are prepared. […] Following the addition of carbazole compounds to 96-well plates containing bacteria, plates are transferred to the 37° C. bacteria incubator for 48 hours. After the incubation, the OD600 mm for each well of the 96-well plates will be measured. […] The % DMSO control is plotted vs compound concentration to generate sigmoid shaped curves. After three runs are complete, the raw data for all three runs is used for IC50 calculations.

C. krusei = experiment: in vitro susceptibility CLSI M27A3, MIC; assay type: cell-based; settings: Pichia kudriavzevii, ATCC6258; strain ATCC 6258, WT, Susceptible (naturally fluconazole resistant); read-out: MIC* (48 hs)
C. albicans = experiment: microbe, parasite or virus in culture; assay type: cell-based; settings: Candida albicans
Description: Candida spp. strains: 20 Candida spp. clinical isolates and one laboratory control strain (C. albicans SC5314) was used in the study. In the collection were included:
5 C. albicans isolates, two wild type strain (SC5314 and ATCC 36082), one echinocandin resistant isolate (M205) (6), and two fluconazole resistant clinical isolates (3795 and 3184) (7).

C. parapsilosis = experiment: in vitro susceptibility CLSI M27A3, MIC; assay type: cell-based; settings: Lodderomyces parapsilosis, ATCC22019, strain ATCC 22019, WT, Echinocandin cross-reduced susceptibility
Description: (§1) (12): 1 C. orthopsilosis (981224), 1 C. metapsilosis (2006-113), C. parapsilosis (ATCC 22019 CLSI control), and C. guilliermondii (ATCC6260) (13).

C. orthopsilosis = experiment: in vitro susceptibility CLSI M27A3, MIC; assay type: cell-based; settings: Lodderomyces orthopsilosis, strain 981224, WT, Echinocandin cross-reduced susceptibility
Description: as §1

[2] = tested on: Af293 strain of A. fumigatus; experiment: XTT viability assay; assay type: cell-based, Aspergillus fumigatus
Experimental: This strain was selected because it is one of the best characterized strains and was the strain used for sequencing the A. fumigatus genome. XTT viability assay is based on the reduction of the tetrazolium salt (XTT) in the presence of menadione as an electron-coupling agent. There is a relationship between the number of viable fungi and the amount of XTT reduction (16).
The same methods previously described in performing the XTT assay (17) were used. Af293 conidia were plated on Sabouraud BHI slants with chloramphenicol and gentamicin (Becton Dickinson, Md.), incubated for 7 to 10 days at room temperature, and harvested by washing the slant with 10 ml of 0.05% Tween 20 in normal saline (NS). The conidial suspension then was passed through a 100-μm filter, counted on a hemacytometer, and diluted to 2.0×10^6 CFU/ml. Conidia then were diluted 1:50 in MOPS (morpholinepropanesulfonic acid)-buffered RPMI (pH 7.0). A stock solution of Example 15 dissolved in DMSO was used. […] Following the addition of drug-containing medium to each well, the conidial suspension (100 μl) was added (t=0 h). Control wells contained conidia, medium, and vehicle without drug. Blank wells consisted of medium only without conidia. […] One hundred microliters of the supernatant was transferred to a new plate, and the optical density at 450 nm (OD450) was determined by using a Labsystems Multiskan Plus plate reader. […]

[3] = tested on: human HCT-8 ileocecal adenocarcinoma xenografts
Experimental: as §2, §3, §4, §5, §6, §7, §8

[4] = p.o. at MTD, 5 days on/2 days off per week, Example 15 5, Example 7 30, Example 13 25 mg/kg/d
[5] = same, maximum weight loss of pretreatment body weight

CCN(CC)CCn1c2ccc3c(c2c2c4c(ccc21)C(=O)CC4)CCC3=O [Example 15]
MTD at 4 weeks (in vivo): 5 mg/kg/day
delay of tumor growth (control double time 7.8 days) [1]: 76%
inhibitory rate / tumor growth inhibition [1]: 58%
Antitumor Activity MTGI (%) [1, 4]: 58.4 ± 6.4%
Toxicity (%) lethality ([1]; same): 40%
CR (%) ([1]; same, complete tumor response): 0%
Toxicity (%) MWL [1, 5]: 17.9 ± 6.8%
PR (%) ([1]; same, partial tumor response): 0%
Antitumor Activity TDT ([1]; same, tumor doubling time): 13.1 ± 2.3 days
antibacterial effect (Bacillus subtilis): antibacterial effect
MIC (C. krusei): 0.66 µM (≈ 0.247 µg/mL)
MIC (C. albicans; read-out: MIC* (48 hs), strain 3184, CDR1 overexpression, Fluconazole- resistant): 0.66 µM (≈ 0.247 µg/mL)
MIC (C. albicans; strain ATCC36082, WT, Susceptible, read-out: MIC* (24 hs)): 0.04 µM (≈ 0.015 µg/mL)
MIC (C. albicans; strain ATCC36082, WT, Susceptible, read-out: MIC* (48 hs)): 0.04 µM (≈ 0.015 µg/mL)
MIC (C. albicans; strain SC5314, WT, Susceptible, read-out: MIC* (24 hs)): 0.04 µM (≈ 0.015 µg/mL)
MIC (C. albicans; strain SC5314, WT, Susceptible, read-out: MIC* (48 hs)): 0.08 µM (≈ 0.03 µg/mL)
MIC (C. parapsilosis; read-out: MIC* (24 hs)): 0.08 µM (≈ 0.03 µg/mL)
MIC (C. parapsilosis; read-out: MIC* (48 hs)): 0.08 µM (≈ 0.03 µg/mL)
MIC (C. orthopsilosis; read-out: MIC* (24 hs)): 0.16 µM (≈ 0.0599 µg/mL)
MIC (C. orthopsilosis; read-out: MIC* (48 hs)): 0.16 µM (≈ 0.0599 µg/mL)
IC50 ([2]; Aspergillus fumigatus, XTT assay at 24 h): ~2500 nM
concentration for complete suppression of fungal growth ([2]; visual inspection of the wells): greater than 12.5 μM
Antitumor Activity MTGI (%) [3, 4]: 40.0 ± 18.6%
Toxicity (%) lethality ([3]; same): 0%
CR (%) ([3]; same, complete tumor response): 0%
Toxicity (%) MWL [3, 5]: 10.0 ± 3.8%
PR (%) ([3]; same, partial tumor response): 0%
Antitumor Activity TDT ([3]; same, tumor doubling time): 7.5 ± 3.5 days
delay of tumor growth compared to the vehicle control (double time 4.8 days) ([3]; text b677): 57%
